Assay results from publication PMC3928115, “Organophosphate-Induced Changes in the PKA Regulatory Function of Swiss Cheese/NTE Lead to Behavioral Deficits and Neurodegeneration” (PLoS ONE, 2014).

Biological target: T1, Swiss Cheese (SWS) (Drosophila melanogaster, UniProt Q9U969)
T1 construct: native full-length SWS in fly head homogenate, not purified; sws1 null mutant used as control
Assay: esterase activity in fly head homogenates
Assay type: biochemical
Details: untreated flies; activity very low in sws1 null, raised to about 160% with SWS overexpression

T1 sequence (Q9U969 whole entry): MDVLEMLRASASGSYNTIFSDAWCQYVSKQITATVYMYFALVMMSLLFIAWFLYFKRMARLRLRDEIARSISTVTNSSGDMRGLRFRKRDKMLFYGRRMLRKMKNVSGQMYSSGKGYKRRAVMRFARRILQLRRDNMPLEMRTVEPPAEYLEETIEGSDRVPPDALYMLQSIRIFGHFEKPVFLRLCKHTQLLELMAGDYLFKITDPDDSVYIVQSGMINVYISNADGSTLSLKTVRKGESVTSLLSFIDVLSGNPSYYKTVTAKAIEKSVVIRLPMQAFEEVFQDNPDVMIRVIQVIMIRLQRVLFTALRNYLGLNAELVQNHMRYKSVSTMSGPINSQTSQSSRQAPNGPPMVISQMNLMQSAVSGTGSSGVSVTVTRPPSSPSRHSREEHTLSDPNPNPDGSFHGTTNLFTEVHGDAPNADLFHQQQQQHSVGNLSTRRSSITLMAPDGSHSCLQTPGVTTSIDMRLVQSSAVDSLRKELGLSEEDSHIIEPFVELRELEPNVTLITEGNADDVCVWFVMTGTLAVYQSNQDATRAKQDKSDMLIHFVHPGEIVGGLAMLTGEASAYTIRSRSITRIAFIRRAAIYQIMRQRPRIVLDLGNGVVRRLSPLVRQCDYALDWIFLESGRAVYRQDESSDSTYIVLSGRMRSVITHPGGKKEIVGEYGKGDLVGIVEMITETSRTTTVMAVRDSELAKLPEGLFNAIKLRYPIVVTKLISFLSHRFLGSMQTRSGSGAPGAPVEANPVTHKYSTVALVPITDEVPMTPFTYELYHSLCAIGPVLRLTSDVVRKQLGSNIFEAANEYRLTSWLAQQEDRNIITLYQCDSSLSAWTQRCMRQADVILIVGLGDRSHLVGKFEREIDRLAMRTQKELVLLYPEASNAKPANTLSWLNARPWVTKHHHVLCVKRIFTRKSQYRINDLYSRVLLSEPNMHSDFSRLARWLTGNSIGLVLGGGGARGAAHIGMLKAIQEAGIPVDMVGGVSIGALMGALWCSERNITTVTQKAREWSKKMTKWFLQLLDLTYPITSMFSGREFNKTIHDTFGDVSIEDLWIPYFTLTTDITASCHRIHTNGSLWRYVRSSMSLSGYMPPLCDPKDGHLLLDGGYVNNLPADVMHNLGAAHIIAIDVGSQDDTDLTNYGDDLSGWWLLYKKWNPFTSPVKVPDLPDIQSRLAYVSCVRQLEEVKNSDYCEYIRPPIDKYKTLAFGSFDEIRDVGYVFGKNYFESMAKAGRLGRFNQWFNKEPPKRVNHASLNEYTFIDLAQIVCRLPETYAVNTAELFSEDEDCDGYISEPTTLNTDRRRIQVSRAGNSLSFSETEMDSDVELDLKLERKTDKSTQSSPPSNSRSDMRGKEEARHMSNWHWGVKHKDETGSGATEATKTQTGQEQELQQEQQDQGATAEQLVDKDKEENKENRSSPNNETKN

CCCCC(=O)Oc1ccccc1 [phenyl valerate]
esterase activity in fly head homogenates: hydrolyzing activity against phenyl valerate, a standard substrate to detect NTE activity
